Counter-ions that a name gives are not always drawn.
Test system: tracheal phenol red excretion in ICR mice
Test: Expectorant test, phenol red excretion method in mice
Assay type: in vivo, mouse
Experimental: • Animals: male ICR mice; • Drugs and reagents: Mucosolvan (ambroxol hydrochloride tablets), phenol red, sodium bicarbonate, protein BD-11; • Instruments: centrifuge (Sigma-3K15 type), balance (XS105DU type), Microplate tester (BIO-TEK type).
Experiment grouping: • Solvent control group; • Mucosolvan 30 mg/kg group; • Protein BD-11, 20 mg/kg group, 50 mg/kg group.
The animals were fasted and water was taken freely 16 hours before the experiment. Orally administered Mucosolvan and different doses of protein BD-11 (administration volume 10 ml/kg) in groups, and the solvent control group was given the same volume of distilled water. One hour later, 2.5% phenol red solution was injected intraperitoneally. Mice were sacrificed by neck dislocation after 30 minutes. Take a trachea from below the thyroid cartilage to the branch of the trachea, and put the trachea into 3 ml 5% NaHCO3 solution and let it stand for 3 hours. Take 1 ml of the supernatant and centrifuge at 3000 rpm for 5 minutes. Measure and record the absorbance at 546 nm. According to the standard curve of phenol red, the excretion of phenol red was calculated.
Record the time point of oral administration, the time point of intraperitoneal injection of 2.5% phenol red solution, and the time point of taking the trachea respectively; The absorbance of each group of samples was measured by the microplate reader at 546 nm, Calculate the excretion of phenol red according to the standard curve of phenol red. Calculate the mean and standard error of the data in each group, and use TTEST to compare the solvent control group with other groups, and P<0.05 is considered as a significant difference.
Give Mucosolvan (30 mg/kg) and different doses of protein BD-11 (20 mg/kg, 50 mg/kg). One hour later, 2.5% phenol red solution was intraperitoneally injected, and 30 minutes later, the mice were sacrificed by neck dislocation. Take the trachea from below the thyroid cartilage to the branch of the trachea, put the trachea into 3 ml of 5% NaHCO3 solution and let it stand for 3 hours, take 1 ml of supernatant, centrifuge at 3000 rpm for 5 minutes, measure and record the absorbance at 546 nm. According to the standard curve of phenol red, the excretion of phenol red was calculated.

`Nc1c(Br)cc(Br)cc1CN[C@H]1CC[C@H](O)CC1` [Mucosolvan, ambroxol hydrochloride, reference compound] was tested, and the Phenol red excretion (Mucosolvan 30 mg/kg oral, X±SEM, n=10) was 1.061 ± 0.117 µg/mL and the “Amount of phenol red excretion vs solvent control group” value (Mucosolvan 30 mg/kg, P<0.05) was “significantly increased”.

Source: US20230183305A1, “KERATIN BD-11, PREPARATION METHOD THEREFOR AND PHARMACEUTICAL COMPOSITION AND USE THEREOF” (INSTITUTE OF MATERIA MEDICA, CHINESE ACADEMY OF MEDICAL …, priority 2019, published 2023)
